From patent US12473304B2, “Heterocyclic PAD4 inhibitors” (BRISTOL-MYERS SQUIBB COMPANY, priority 2020, dated 2025)

Biological target: human PAD4 (hPAD4) (Homo sapiens (Human), UniProt Q9UM07)
Assay: RFMS Human PAD4 Functional Assay 1
Assay type: biochemical
Conditions: RFMS assay 1; 5 nM hPAD4, 250 μM BAEE substrate, 50 μM calcium, 37° C.
Procedure, shortened: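 Recombinant hPAD4 (5 nM) was preincubated with compound (top 50 μM, 0.5% DMSO) for 30 min at 37 °C, then reacted with 250 μM BAEE for 90 min at 37 °C in pH 7.5 HEPES buffer with 50 μM calcium and 5 μM TPEN. Product was derivatized with phenyl glyoxal and quantified by RapidFire MS.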

human PAD4 (hPAD4), sequence (Q9UM07 whole entry): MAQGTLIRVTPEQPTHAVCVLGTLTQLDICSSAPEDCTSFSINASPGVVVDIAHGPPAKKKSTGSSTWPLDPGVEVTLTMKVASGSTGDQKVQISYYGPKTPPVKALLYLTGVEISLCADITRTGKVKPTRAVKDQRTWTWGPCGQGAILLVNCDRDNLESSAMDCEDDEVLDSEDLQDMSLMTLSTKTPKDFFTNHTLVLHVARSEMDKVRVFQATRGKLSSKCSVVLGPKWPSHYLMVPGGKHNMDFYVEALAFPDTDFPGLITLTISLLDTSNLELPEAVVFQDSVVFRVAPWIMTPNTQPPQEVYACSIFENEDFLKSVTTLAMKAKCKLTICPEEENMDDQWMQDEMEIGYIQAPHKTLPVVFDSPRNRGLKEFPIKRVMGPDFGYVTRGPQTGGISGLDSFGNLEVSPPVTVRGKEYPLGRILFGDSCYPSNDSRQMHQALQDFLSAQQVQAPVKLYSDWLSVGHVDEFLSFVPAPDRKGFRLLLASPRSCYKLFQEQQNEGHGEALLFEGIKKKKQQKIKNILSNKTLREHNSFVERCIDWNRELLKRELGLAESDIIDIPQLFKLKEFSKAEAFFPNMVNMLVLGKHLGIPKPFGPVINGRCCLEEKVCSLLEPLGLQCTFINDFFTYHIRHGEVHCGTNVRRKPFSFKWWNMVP

Row | Compound | IC50 [nM]
1 | Cc1c(-c2cc3ccc(-c4ccc5c(c4)C(=O)NC5)nc3n2CC2CC2)oc2cc(C(=O)N3CC4CCC3[C@@H]4N)ccc12 (stereo partly drawn) [Example 166, 6-(2-(6-((7R)-7-Amino-2-azabicyclo[2.2.1]heptane-2-carbonyl)-3-methylbenzofuran-2-yl)-1-(cyclopropylmethyl)-1H-pyrrolo[2,3-b]pyridin-6-yl)isoindolin-1-one] | 56
2 | Cc1c(-c2cc3ccc(-c4ccn5c(C)nnc5c4)nc3n2CC2CC2)oc2cc(C(=O)N3CC4CCC3[C@@H]4N)ccc12 (some centres unmarked) [Example 167] | 45
3 | Cc1c(-c2cc3ccc(-c4ccc5c(c4)CNC5=O)nc3n2CC2CC2)oc2cc(C(=O)N3CC4CCC3[C@@H]4N)ccc12 (stereo partly drawn) [Example 168, 5-(2-(6-((7R)-7-Amino-2-azabicyclo[2.2.1]heptane-2-carbonyl)-3-methylbenzofuran-2-yl)-1-(cyclopropylmethyl)-1H-pyrrolo[2,3-b]pyridin-6-yl)isoindolin-1-one] | 47
4 | Cc1c(-c2cc3ccc(-c4cccc(O)c4F)nc3n2CC2CC2)oc2cc(C(=O)N3CC4CCC3[C@@H]4N)ccc12 (stereo partly drawn) [Example 169, ((7R)-7-Amino-2-azabicyclo[2.2.1]heptan-2-yl)(2-(1-(cyclopropylmethyl)-6-(2-fluoro-3-hydroxyphenyl)-1H-pyrrolo[2,3-b]pyridin-2-yl)-3-methylbenzofuran-6-yl)methanone] | 181
5 | Cc1c(-c2cc3ccc(-c4ccc(C(N)=O)c(F)c4)nc3n2CC2CC2)oc2cc(C(=O)N3CC4CCC3[C@@H]4N)ccc12 (stereo partly drawn) [Example 170, 4-(2-(6-((7R)-7-amino-2-azabicyclo[2.2.1]heptane-2-carbonyl)-3-methylbenzofuran-2-yl)-1-(cyclopropylmethyl)-1H-pyrrolo[2,3-b]pyridin-6-yl)-2-fluorobenzamide] | 135
6 | Cc1ccc2cc(-c3oc4cc(C(=O)N5CC6CCC5[C@@H]6N)ccc4c3C)n(CC3CC3)c2n1 (stereo partly drawn) [Example 171, ((7R)-7-Amino-2-azabicyclo[2.2.1]heptan-2-yl)(2-(1-(cyclopropylmethyl)-6-methyl-1H-pyrrolo[2,3-b]pyridin-2-yl)-3-methylbenzofuran-6-yl)methanone] | 76
7 | COc1cc(-c2ccc3cc(-c4oc5cc(C(=O)N6CC7CCC6[C@@H]7N)ccc5c4C)n(CC4CC4)c3n2)ccn1 (stereo partly drawn) [Example 172, ((7R)-7-Amino-2-azabicyclo[2.2.1]heptan-2-yl)(2-(1-(cyclopropylmethyl)-6-(2-methoxypyridin-4-yl)-1H-pyrrolo[2,3-b]pyridin-2-yl)-3-methylbenzofuran-6-yl)methanone] | 8770
8 | COC1CN(c2ccc3cc(-c4oc5cc(C(=O)N6CC7CCC6[C@@H]7N)ccc5c4C)n(CC4CC4)c3n2)C1 (stereo partly drawn) [Example 173, ((7R)-7-Amino-2-azabicyclo[2.2.1]heptan-2-yl)(2-(1-(cyclopropylmethyl)-6-(3-methoxyazetidin-1-yl)-1H-pyrrolo[2,3-b]pyridin-2-yl)-3-methylbenzofuran-6-yl)methanone] | 90
9 | Cc1c(-c2cc3cccnc3n2CC2CC2)oc2cc(C(=O)N3C[C@H](N)C[C@@H](F)C3)ccc12 [Example 174, ((3R,5R)-3-Amino-5-fluoropiperidin-1-yl)(2-(1-(cyclopropylmethyl)-1H-pyrrolo[2,3-b]pyridin-2-yl)-3-methylbenzofuran-6-yl)methanone] | 204
10 | Cc1c(-c2cc3ccc(-c4ccc5c(c4)C(=O)NC5)nc3n2CC2CC2)oc2cc(C(=O)N3C[C@H](N)C[C@@H](F)C3)ccc12 [Example 175, 6-(2-(6-((3R,5R)-3-Amino-5-fluoropiperidine-1-carbonyl)-3-methylbenzofuran-2-yl)-1-(cyclopropylmethyl)-1H-pyrrolo[2,3-b]pyridin-6-yl)isoindolin-1-one] | 830
11 | Cc1c(-c2cc3ccccc3n2CC2CC2)oc2cc(C(=O)N3CC4CCC3[C@@H]4N)ccc12 (stereo partly drawn) [Example 176, ((7R)-7-Amino-2-azabicyclo[2.2.1]heptan-2-yl)(2-(1-(cyclopropylmethyl)-1H-indol-2-yl)-3-methylbenzofuran-6-yl)methanone] | 229
12 | Cc1c(-c2cc3ccc(-c4ccc5c(c4)C(=O)NC5)cc3n2CC2CC2)oc2cc(C(=O)N3CC4CCC3[C@@H]4N)ccc12 (stereo partly drawn) [Example 177, 6-(2-(6-((7R)-7-Amino-2-azabicyclo[2.2.1]heptane-2-carbonyl)-3-methylbenzofuran-2-yl)-1-(cyclopropylmethyl)-1H-indol-6-yl)isoindolin-1-one] | 69
13 | Cc1c(-c2cc3ccc(-c4ccc5c(c4)CNC5=O)cc3n2CC2CC2)oc2cc(C(=O)N3CC4CCC3[C@@H]4N)ccc12 (stereo partly drawn) [Example 178, 5-(2-(6-((7R)-7-Amino-2-azabicyclo[2.2.1]heptane-2-carbonyl)-3-methylbenzofuran-2-yl)-1-(cyclopropylmethyl)-1H-indol-6-yl)isoindolin-1-one] | 153
14 | Cc1c(-c2cc3ccc(-c4ccn5c(C)nnc5c4)cc3n2CC2CC2)oc2cc(C(=O)N3CC4CCC3[C@@H]4N)ccc12 (stereo partly drawn) [Example 179, ((7R)-7-Amino-2-azabicyclo[2.2.1]heptan-2-yl)(2-(1-(cyclopropylmethyl)-6-(3-methyl-[1,2,4]triazolo[4,3-a]pyridin-7-yl)-1H-indol-2-yl)-3-methylbenzofuran-6-yl)methanone] | 35
15 | Cc1c(-c2cc3ccc(-c4cnn(C(C)C)c4)cc3n2CC2CC2)oc2cc(C(=O)N3CC4CCC3[C@@H]4N)ccc12 (stereo partly drawn) [Example 180, ((7R)-7-Amino-2-azabicyclo[2.2.1]heptan-2-yl)(2-(1-(cyclopropylmethyl)-6-(1-isopropyl-1H-pyrazol-4-yl)-1H-indol-2-yl)-3-methylbenzofuran-6-yl)methanone] | 220

Results, then the compound that gave them:

Row | IC50 [nM] | Compound
16 | 269 | Cc1c(-c2cc3ccc(-c4cccc(O)c4F)cc3n2CC2CC2)oc2cc(C(=O)N3CC4CCC3[C@@H]4N)ccc12 (stereo partly drawn) [Example 181, ((7R)-7-Amino-2-azabicyclo[2.2.1]heptan-2-yl)(2-(1-(cyclopropylmethyl)-6-(2-fluoro-3-hydroxyphenyl)-1H-indol-2-yl)-3-methylbenzofuran-6-yl)methanone]
17 | 923 | Cc1c(-c2cc3ccc(-c4ccc(O)c(F)c4)cc3n2CC2CC2)oc2cc(C(=O)N3CC4CCC3[C@@H]4N)ccc12 (stereo partly drawn) [Example 182, ((7R)-7-Amino-2-azabicyclo[2.2.1]heptan-2-yl)(2-(1-(cyclopropylmethyl)-6-(3-fluoro-4-hydroxyphenyl)-1H-indol-2-yl)-3-methylbenzofuran-6-yl)methanone]
18 | 88 | Cc1c(-c2cc3ccc(-c4ccc(C(N)=O)c(Cl)c4)cc3n2CC2CC2)oc2cc(C(=O)N3CC4CCC3[C@@H]4N)ccc12 (stereo partly drawn) [Example 183, 4-(2-(6-((7R)-7-Amino-2-azabicyclo[2.2.1]heptane-2-carbonyl)-3-methylbenzofuran-2-yl)-1-(cyclopropylmethyl)-1H-indol-6-yl)-2-chlorobenzamide]
19 | 50 | Cc1ccc2cc(-c3oc4cc(C(=O)N5CC6CCC5[C@@H]6N)ccc4c3C)n(CC3CC3)c2c1 (stereo partly drawn) [Example 184, ((7R)-7-Amino-2-azabicyclo[2.2.1]heptan-2-yl)(2-(1-(cyclopropylmethyl)-6-methyl-1H-indol-2-yl)-3-methylbenzofuran-6-yl)methanone]
20 | 25 | Cc1c(-c2cc3ccc(-c4ccc(C(N)=O)c(F)c4)cc3n2CC2CC2)oc2cc(C(=O)N3CC4CCC3[C@@H]4N)ccc12 (stereo partly drawn) [Example 185, 4-(2-(6-((7R)-7-Amino-2-azabicyclo[2.2.1]heptane-2-carbonyl)-3-methylbenzofuran-2-yl)-1-(cyclopropylmethyl)-1H-indol-6-yl)-2-fluorobenzamide]
21 | 56 | COc1cc(-c2ccc3cc(-c4oc5cc(C(=O)N6CC7CCC6[C@@H]7N)ccc5c4C)n(CC4CC4)c3c2)ccn1 (stereo partly drawn) [Example 186, ((7R)-7-Amino-2-azabicyclo[2.2.1]heptan-2-yl)(2-(1-(cyclopropylmethyl)-6-(2-methoxypyridin-4-yl)-1H-indol-2-yl)-3-methylbenzofuran-6-yl)methanone]
22 | 1550 | Cc1c(-c2cc3ccc(C4CC4)cc3n2CC2CC2)oc2cc(C(=O)N3CC4CCC3[C@@H]4N)ccc12 (stereo partly drawn) [Example 187, ((7R)-7-Amino-2-azabicyclo[2.2.1]heptan-2-yl)(2-(6-cyclopropyl-1-(cyclopropylmethyl)-1H-indol-2-yl)-3-methylbenzofuran-6-yl)methanone]
23 | 81 | Cc1cc(-c2ccc3cc(-c4oc5cc(C(=O)N6CC7CCC6[C@@H]7N)ccc5c4C)n(CC4CC4)c3c2)cnc1C(N)=O (stereo partly drawn) [Example 188, 5-(2-(6-((7R)-7-Amino-2-azabicyclo[2.2.1]heptane-2-carbonyl)-3-methylbenzofuran-2-yl)-1-(cyclopropylmethyl)-1H-indol-6-yl)-3-methylpicolinamide]
24 | 30 | COC1CCN(c2ccc3cc(-c4oc5cc(C(=O)N6CC7CCC6[C@@H]7N)ccc5c4C)n(CC4CC4)c3c2)CC1 (stereo partly drawn) [Example 189, ((7R)-7-Amino-2-azabicyclo[2.2.1]heptan-2-yl)(2-(1-(cyclopropylmethyl)-6-(4-methoxypiperidin-1-yl)-1H-indol-2-yl)-3-methylbenzofuran-6-yl)methanone]
25 | 58 | COC1CN(c2ccc3cc(-c4oc5cc(C(=O)N6CC7CCC6[C@@H]7N)ccc5c4C)n(CC4CC4)c3c2)C1 (stereo partly drawn) [Example 190, ((7R)-7-Amino-2-azabicyclo[2.2.1]heptan-2-yl)(2-(1-(cyclopropylmethyl)-6-(3-methoxyazetidin-1-yl)-1H-indol-2-yl)-3-methylbenzofuran-6-yl)methanone]
26 | 20 | Cc1c(-c2cc3ccc(N4CCC(N)CC4)cc3n2CC2CC2)oc2cc(C(=O)N3CC4CCC3[C@@H]4N)ccc12 (stereo partly drawn) [Example 191, ((7R)-7-Amino-2-azabicyclo[2.2.1]heptan-2-yl)(2-(6-(4-aminopiperidin-1-yl)-1-(cyclopropylmethyl)-1H-indol-2-yl)-3-methylbenzofuran-6-yl)methanone]
